Experimental data published in patent US6432662B1, “Assay of peroxidase activity” (Pierce Chemical Company, priority 1999, dated 2002).

Assays:
[1] = target: SA-HRP (Armoracia rusticana, UniProt P00433); experiment: Dot blot application of water soluble azine enhancers (Example 8); format: biochemical, horseradish
[2] = target: horseradish peroxidase labeled streptavidin (SA-HRP) (Armoracia rusticana, UniProt P00433); experiment: Blot application comparing enhancer working solutions (Example 7); format: biochemical; details: after the 30 minute reexposure, enhancer: 1c […] (present invention) or 52 μM (low), 1b 52 μM, 3 13.5 μM
[3] = 50 μM enhancer with 1 mM Sodium Luminol
[4] = […] enhancer with 5 mM Sodium Luminol

Sequence of SA-HRP (P00433 31-338 limits assumed): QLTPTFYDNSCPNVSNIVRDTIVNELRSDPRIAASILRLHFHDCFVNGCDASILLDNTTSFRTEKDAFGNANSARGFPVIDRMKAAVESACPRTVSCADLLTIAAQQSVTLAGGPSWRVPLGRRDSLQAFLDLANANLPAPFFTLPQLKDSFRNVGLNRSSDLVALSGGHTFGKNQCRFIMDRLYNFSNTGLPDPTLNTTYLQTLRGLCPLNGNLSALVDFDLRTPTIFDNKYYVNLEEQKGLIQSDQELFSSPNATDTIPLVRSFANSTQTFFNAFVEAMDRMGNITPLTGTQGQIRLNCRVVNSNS
Sequence of SA-HRP (P22629 25-183 partner): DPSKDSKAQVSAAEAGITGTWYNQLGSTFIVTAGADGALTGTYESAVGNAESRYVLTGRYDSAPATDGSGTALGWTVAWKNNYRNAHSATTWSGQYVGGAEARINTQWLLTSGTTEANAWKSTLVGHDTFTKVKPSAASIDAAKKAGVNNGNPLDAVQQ
Sequence of horseradish peroxidase labeled streptavidin (SA-HRP) (P00433 31-338 limits assumed): as the sequence (P00433 31-338 limits assumed) above
Sequence of horseradish peroxidase labeled streptavidin (SA-HRP) (P22629 25-183 partner): as the sequence (P22629 25-183 partner) above

Substance | Net Relative Intensity at 10 pg SA-HRP [1, 3] | Net Relative Intensity at 100 pg SA-HRP [1, 3] | Net Relative Intensity at 10 pg SA-HRP [1, 4] | Net Relative Intensity at 100 pg SA-HRP [1, 4] | Relative Intensity 2 pg SA-HRP [2] | Relative Intensity 5 pg SA-HRP [2] | Relative Intensity 20 pg SA-HRP [2]
2-chloro-10 (3 trimethyl amino propyl)-phenothiazonan bromide [Azine Enhancer 1d] | 0 | 0 | 225,632 | 311,048 |  |  | 
Phenylindophenol/indophenol [Phenolic Enhancer 3] |  |  |  |  | 0 | 106,776 | 598,072
